Data: ChEMBL document CHEMBL1150037, “Calcineurin has a very tight-binding pocket for the side chain of residue 4 of cyclosporin” (1994)

Legend:
[1] = molecular target: Peptidyl-prolyl cis-trans isomerase A (Rattus norvegicus) (UniProt P10111); assay: In vitro affinity towards cyclophilin A was determined under competitive ELISA systems using protein-conjugated ligand CsA
Mus musculus = organism: Mus musculus; assay: Immunosuppressive activity by mouse mixed lymphocyte reaction (MLR_M) relative to cyclosporin as 1; format: functional
[2] = Immunosuppressive activity with the help of a reporter gene assay for IL-2 (IL2-RGA) relative to cyclosporin as 1; format: functional

Peptidyl-prolyl cis-trans isomerase A (Rattus norvegicus), sequence (P10111 whole entry): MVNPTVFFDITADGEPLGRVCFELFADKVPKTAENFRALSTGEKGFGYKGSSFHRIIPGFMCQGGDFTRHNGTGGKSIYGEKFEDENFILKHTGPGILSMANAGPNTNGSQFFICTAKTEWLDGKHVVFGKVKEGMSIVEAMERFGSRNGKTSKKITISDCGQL

Compound	Relative IC50 [1]	Relative IC50 (Mus musculus)	Relative IC50 [2]
C/C=C/C[C@@H](C)[C@@H](O)[C@H]1C(=O)N[C@@H](CC)C(=O)N(C)CC(=O)N(C)[C@@H](CCC(C)C)C(=O)N[C@@H](C(C)C)C(=O)N(C)[C@@H](CC(C)C)C(=O)N[C@@H](C)C(=O)N[C@H](C)C(=O)N(C)[C@@H](CC(C)C)C(=O)N(C)[C@@H](CC(C)C)C(=O)N(C)C(C(C)C)C(=O)N1C (single isomer, unassigned)	1.9	3.5	9
C/C=C/C[C@@H](C)[C@@H](O)[C@H]1C(=O)N[C@@H](CC)C(=O)N(C)CC(=O)N(C)[C@@H](CC2CC2)C(=O)N[C@@H](C(C)C)C(=O)N(C)[C@@H](CC(C)C)C(=O)N[C@@H](C)C(=O)N[C@H](C)C(=O)N(C)[C@@H](CC(C)C)C(=O)N(C)[C@@H](CC(C)C)C(=O)N(C)C(C(C)C)C(=O)N1C (single isomer, unassigned)	2.8	5	5.3
C/C=C/C[C@@H](C)[C@@H](O)[C@H]1C(=O)N[C@@H](CC)C(=O)N(C)CC(=O)N(C)[C@@H](C(C)C)C(=O)N[C@@H](C(C)C)C(=O)N(C)[C@@H](CC(C)C)C(=O)N[C@@H](C)C(=O)N[C@H](C)C(=O)N(C)[C@@H](CC(C)C)C(=O)N(C)[C@@H](CC(C)C)C(=O)N(C)C(C(C)C)C(=O)N1C (single isomer, unassigned)	0.5	130	2500
C/C=C/C[C@@H](C)[C@@H](O)[C@H]1C(=O)N[C@@H](CC)C(=O)N(C)CC(=O)N(C)[C@@H](CC(C)(C)O)C(=O)N[C@@H](C(C)C)C(=O)N(C)[C@@H](CC(C)C)C(=O)N[C@@H](C)C(=O)N[C@H](C)C(=O)N(C)[C@@H](CC(C)C)C(=O)N(C)[C@@H](CC(C)C)C(=O)N(C)[C@@H](C(C)C)C(=O)N1C	0.9	130	110

Results, then the compound that gave them:

Relative IC50 [1]	Relative IC50 (Mus musculus)	Relative IC50 [2]	Compound
1.8	1.6	4	C=C(C)C[C@H]1C(=O)N[C@@H](C(C)C)C(=O)N(C)[C@@H](CC(C)C)C(=O)N[C@@H](C)C(=O)N[C@H](C)C(=O)N(C)[C@@H](CC(C)C)C(=O)N(C)[C@@H](CC(C)C)C(=O)N(C)C(C(C)C)C(=O)N(C)[C@@H]([C@H](O)[C@H](C)C/C=C/C)C(=O)N[C@@H](CC)C(=O)N(C)CC(=O)N1C (single isomer, unassigned)
1.2	65	163	C/C=C/C[C@@H](C)[C@@H](O)[C@H]1C(=O)N[C@@H](CC)C(=O)N(C)CC(=O)N(C)[C@@H](CC)C(=O)N[C@@H](C(C)C)C(=O)N(C)[C@@H](CC(C)C)C(=O)N[C@@H](C)C(=O)N[C@H](C)C(=O)N(C)[C@@H](CC(C)C)C(=O)N(C)[C@@H](CC(C)C)C(=O)N(C)C(C(C)C)C(=O)N1C (single isomer, unassigned)
2.1	25	7	C/C=C/C[C@@H](C)[C@@H](O)[C@H]1C(=O)N[C@@H](CC)C(=O)N(C)CC(=O)N(C)[C@@H](CC(C)(C)F)C(=O)N[C@@H](C(C)C)C(=O)N(C)[C@@H](CC(C)C)C(=O)N[C@@H](C)C(=O)N[C@H](C)C(=O)N(C)[C@@H](CC(C)C)C(=O)N(C)[C@@H](CC(C)C)C(=O)N(C)[C@@H](C(C)C)C(=O)N1C
